Values joined by “and” are separate entries in the source; they are usually repeats but may differ in a detail not shown here. Equal values may be shown once. Read-outs that look alike come from different tables or passages of the source.

Assay [1] concerns formalin-induced nociceptive behavior. Description: Formalin test (spontaneous jerking of the injected hindpaw). The format is in vivo, rat. The note with it: for in vivo IC50 per animal body weight: calculated from effective concentrations in formalin model; for IC50: locally administered concentration, coinjection with formalin. The procedure:
All animal experiments were carried out in accordance with the “Guide for the Care and Use of Laboratory Animals” as adopted by the Bogomoletz Institute of Physiology Clinic of Animal Care and Use. The formalin test experiments were performed on 21-day-old male Wistar rats, weighing 40 ± 5 g according to the method described previously.[49],[50] Briefly, animal was acclimated to an acrylic observation chamber for at least 1 h before the injection of formalin (50 µl of 0.5% solution in 0.9% saline) into the dorsal surface of the right hindpaw. Immediately after the injection, each animal was returned to the observation chamber and its behavioral characteristics were recorded for 45 min. We noticed consistently observed type of response: spontaneous jerking of the injected paw. The number of jerks was measured for each 1-min block, using self-developed computer software.
Figure 8. Effects of subcutaneous Ap4A analogs on pain responses induced by intraplantar (right hindpaw) formalin injection. Rats were subcutaneously injected with formalin solution alone (0.5%, 50 µl, control) or coinjected with the formalin solution and solutions with AppCH2ppA (1 µM–100 µM, 100 µl) or AppNHppA (0.1 µM–100 µM, 100 µl). Age-matched control animals were injected with saline. (a) Time course of the effects of subcutaneous AppCH2ppA (left) and AppNHppA (right) on the number of the spontaneous jerkings of the injected paw. (b) Bar graphs of the effects of AppCH2ppA (b, c) and AppNHppA (d, e) on the integral number of spontaneous jerkings. Measurements were made during the acute phase (0–6 min) and tonic phase (7–45 min) of the formalin response. (f) Dose-response curves for AppCH2ppA (left) and AppNHppA (right) during tonic and acute phases. For each concentration 6–7 rats were used.

The target of assay [2] is T1, rat homomeric P2X3 receptors (Rattus norvegicus, UniProt P49654).
T1 construct: transfected with rat or human full-length P2X3 cDNA subcloned into pIRES2-EGFP; expressed in transfected cells; host or cells: HEK293T (HEK293 in the results)
T1 sequence (P49654 1-397): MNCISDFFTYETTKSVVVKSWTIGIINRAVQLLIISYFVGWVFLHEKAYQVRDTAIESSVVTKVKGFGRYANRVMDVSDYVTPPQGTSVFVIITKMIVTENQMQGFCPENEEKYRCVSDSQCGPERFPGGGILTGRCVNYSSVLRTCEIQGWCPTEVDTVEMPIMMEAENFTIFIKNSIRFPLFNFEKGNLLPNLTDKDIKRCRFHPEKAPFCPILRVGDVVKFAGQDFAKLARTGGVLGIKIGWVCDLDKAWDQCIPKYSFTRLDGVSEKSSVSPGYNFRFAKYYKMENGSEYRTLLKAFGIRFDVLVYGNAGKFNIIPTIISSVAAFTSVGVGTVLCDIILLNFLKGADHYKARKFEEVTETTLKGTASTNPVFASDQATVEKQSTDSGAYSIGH
In words: Whole-cell patch clamp on HEK293 cells expressing rat homomeric P2X3R (activation and HAD inhibition of α,β-meATP test pulses). The format is cell-based. The note with it: for nH of activation curve: partial agonist dose-response. The procedure:
Rat trigeminal, nodose, or dorsal root ganglion (TG, NG, and DRG, respectivley) neurons in culture were prepared as described previously.[46],[47] Neurons were plated on poly-L-lysine (0.2 mg/ml)-coated Petri dishes and cultured for one to two days under an atmosphere containing 5% CO2. Cells were used within two days of plating when they lacked processes. HEK293T cells were prepared as reported previously[32],[48] and transfected with rat or human full-length P2X3 cDNA subcloned into pIRES2-EGFP (Clontech, Mountain View, CA, USA).
TG, NG, DRG, or HEK cells were recorded in the whole-cell configuration while being continuously superfused (at 2 ml/min) with control solution containing (in mM): 152 NaCl, 5 KCl, 1 MgCl2, 2 CaCl2, 10 glucose, and 10 HEPES; pH was adjusted to 7.4 with NaOH and osmolarity was adjusted to 320 mOsM with glucose. […] Responses to selective P2X3R agonist α,β-methylene-ATP (α,β-meATP; resistant to ectoATPase hydrolysis, Sigma-Aldrich) were measured using an EPC-9 amplifier operated by HEKA Patch Master software (HEKA Electronik, Germany). Cells were voltage-clamped at −70 mV. In most cells, series resistance was compensated by 80%. To determine EC50 values, dose-response curves were constructed for α,β-meATP by administering different agonist doses same cells and fitting data to a logistic equation (Origin 8.0, Microcal, Northampton, MA).
Agonists and antagonists were applied (usually for 2 s) via a rapid superfusion system (Rapid Solution Changer RSC-200; BioLogic Science Instruments, Grenoble, France) placed 100 to 150 µm near the cell. The time for the solution exchange across the cell was approximately 30 ms, as judged with liquid junction potential measurements. All chemicals, including enzymes for cell culture, were from Sigma-Aldrich (St. Louis, MO). Culture media were obtained from Invitrogen (Milan, Italy).
The peak amplitudes of the responses were measured using HEKA Patch Master software. For each agonist, dose-response plots were constructed by normalizing data with respect to the maximum response. All data are presented as mean ± SEM (n = the number of cells) with statistical significance assessed by paired t-test (for parametric data) or Mann-Whitney rank-sum test (for nonparametric data). Best fits of data with a sigmoid function were compared with respective control fits using Origin 8.0 software. A value of p < 0.05 was accepted as indicative of statistically significant difference.
Figure 2. Activation and inhibition of rat P2X3 receptors by AppNHppA. Top: Experimental protocol. Test pulses of 10 µM of α,β-meATP were delivered every 2 min. After two control pulses, AppNHppA at different concentrations was applied for 6 min. Example traces of P2X3R-mediated currents in control and after 2 min application of 10 nM (a) and 3 μM (b) of AppNHppA (corresponding to the part of the experimental protocol outlined by a dotted box). (c) The time course of the current inhibition by AppNHppA at different (1 nM–3 μM) concentrations (n = 4–6). Current amplitudes are normalized to control. (d) Dose-response curves for the activation and inhibition of P2X3-mediated currents by AppNHppA.
In general terms: Patch clamp records ionic current or voltage across a cell membrane.

In the case of `Nc1ncnc2c1ncn2[C@@H]1O[C@H](COP(=O)(O)OP(=O)(O)CP(=O)(O)OP(=O)(O)OC[C@H]2O[C@@H](n3cnc4c(N)ncnc43)C(O)C2O)C(O)C1O` (stereo partly drawn) [AppCH2ppA, diadenosine 5′,5′′′-P^1,P^4-(β,γ-methylene)tetraphosphate], the “in vivo IC50 per animal body weight” value in assay [1] is 0.72 nmol/kg and 0.61 µg/kg. In addition, the half-inhibitory concentration (IC50) in assay [1] (acute phase, read-out: IC50 in the acute phase of formalin test) amounted to 34.7 ± 13.2 µM; in assay [1] (tonic phase 7–45 min, read-out: IC50 in the tonic phase of formalin test), 0.29 ± 0.05 µM; in assay [2] (6 min after drug application, test pulse 10 µM α,β-meATP, read-out: IC50 of HAD inhibition of P2X3R currents) it was 0.55 ± 0.2 µM. In addition, the “depression of P2X3R currents at high rate of activation” value in assay [2] (1 µM, α,β-meATP pulses every 30 s) is reported as 81 ± 3%. Further, the “depression of P2X3R currents at low rate of activation” value in assay [2] (1 µM, α,β-meATP pulses every 2 min) was 61.3 ± 5%. In assay [2] (HEK293 rat P2X3R, read-out: EC50 of partial agonist P2X3R activation), the EC50 came to 9.3 ± 1.7 µM. The “nH of activation curve” value in assay [2] is on record as 2.27 ± 0.56.

For the compound `Nc1ncnc2c1ncn2[C@@H]1O[C@H](COP(=O)(O)OP(=O)(O)NP(=O)(O)OP(=O)(O)OC[C@H]2O[C@@H](n3cnc4c(N)ncnc43)[C@H](O)[C@@H]2O)[C@@H](O)[C@H]1O` [AppNHppA, diadenosine 5′,5′′′-P^1,P^4-(β,γ-imido)tetraphosphate], the half-maximal inhibitory concentration (IC50) in assay [1] (Rattus norvegicus, acute phase, read-out: IC50 in the acute phase of formalin test) was greater than 100 µM; in assay [1] (Rattus norvegicus, tonic phase 7–45 min, read-out: IC50 in the tonic phase of formalin test), 0.11 ± 0.02 µM; in assay [2], 0.2 ± 0.04 µM. The “in vivo IC50 per animal body weight” value in assay [1] is 0.28 nmol/kg and 0.23 µg/kg. Moreover, the “amplitude of α,β-meATP test response after application” value in assay [2] (10 nM, test pulse 10 µM α,β-meATP, 2-min interval) is reported as “almost unchanged”. For the same compound, the “reduction of α,β-meATP test responses (HAD effect)” value in assay [2] (100 nM, below activation threshold) was 38.2 ± 8.5%. The “inhibition of α,β-meATP test responses (HAD effect)” value in assay [2] (3 µM, test pulse 10 µM α,β-meATP, 2-min interval) is “complete inhibition”. Also, the “induction of membrane currents” value in assay [2] (0.1 or 1 µM, HEK293 rat homomeric P2X3R) is listed as “not to induce membrane currents”. The currents generated entry in assay [2] (10 or 100 µM, HEK293 rat homomeric P2X3R) was “small and slowly desensitizing currents”. The 50% effective concentration (EC50) was determined as 41 µM in assay [2] (EC50 of activation (summary restatement), rat P2X3R, summary statement) and 41.6 ± 1.3 µM in assay [2] (EC50 of partial agonist P2X3R activation, HEK293 rat P2X3R). In addition, in assay [2] (GDP-β-S 500 µM introduced into cells), the “inhibitory action in presence of G-protein inhibitor GDP-β-S” value is “remained unchanged”. In addition, the inhibition at 1 µM was 23.9 ± 5.24% in assay [2] (HEK293, read-out: inhibitory action on P2X3 receptors with GDP-β-S in intracellular solution) and 23.4 ± 2.01% in assay [2] (HEK293, read-out: inhibitory action on P2X3 receptors with GTP in intracellular solution). For the same compound, in assay [2] (compared with full agonist α,β-meATP), the “agonist type at homomeric P2X3Rs” value is “only a partial agonist”. The “nH of activation curve” value in assay [2] was found to be 1.58 ± 0.05. The “EC50/IC50 ratio (activation/inhibition index)” value in assay [2] (rat P2X3R) came out at 205. In addition, the “current response relative to response induced by 10 µM α,β-meATP” value in assay [2] (saturating 1 mM, same cell) is listed as 41.2 ± 13%.

What is called IC50 is the point on the concentration scale where inhibition reaches its midpoint. By EC50 is commonly meant the midpoint of the concentration-response curve.

The values above are taken from PMC4955970, “Stable, synthetic analogs of diadenosine tetraphosphate inhibit rat and human P2X3 receptors and inflammatory pain” (Molecular Pain, 2016).
